# Laboratory results reported in patent US12350269B2 (Alexion Pharmaceuticals, Inc., priority 2015, dated 2025).
# What was measured:
# TSSK = experiment: Purified kinase assay (Millipore); format: biochemical; conditions: 300 nM ATP
# SYK [1] = experiment: Healthy normal human whole blood assay: B-cell, BCR stimulation, pERK Y204 readout; format: cell-based
# PKC = experiment: Healthy normal human whole blood assay: B-cell, PMA stimulation, pERK Y204 readout; format: cell-based
# SYK [2] = experiment: Healthy normal human whole blood assay: Basophil, FcεR1 stimulation, CD63 readout; format: cell-based
# JAK1/3 [3] = experiment: Healthy normal human whole blood assay: T-cell, IL2 stimulation, pSTAT5 Y694 readout; format: cell-based
# JAK1/3 [4] = experiment: Healthy normal human whole blood assay: T-cell, IL4 stimulation, PSTAT6 Y641 readout; format: cell-based
# [5] = system: rat collagen induced arthritis; experiment: Rat collagen induced arthritis model; format: in vivo
# Method: Collagen antibody titers were determined by ELISA (R&D Systems). Steady-state serum Cmax was determined using liquid chromatography-tandem mass spectrometry.
# The average plasma concentrations (Cmax) for each dosing group is shown at the right of the graph. Asterisks denote statistical significant relative to vehicle by student T test (p<0.05).
# SYK and JAK signaling = experiment: Phase 1 study: whole blood PD, SYK and JAK signaling; format: in vivo, human
# Method: (§1) Human Whole Blood Assays: Inhibition of SYK- and JAK-dependent and independent signaling was determined by stimulating human whole blood with various agonists against BCR and cytokine receptors. 100 μL aliquots of heparinized healthy human whole blood was stimulated as previously described (Coffey et al, J. of Pharm. and Experimental Therapeutics, 351:538-548, 2014), using an 8-point concentration curve to determine IC50's. Signaling and activation responses were determined by Fluorescence-activated cell sorting (“FACS”). For the clinical trial, whole blood samples were collected prior to and after dosing. Percent inhibition was calculated by normalizing to the pre-dose stimulation response.
# (§2) Pharmacokinetics (“PK”), pharmacodynamics (“PD”), and safety were monitored. Response was assessed by standard criteria. The level of inhibition of SYK and JAK was determined using a variety of whole blood assays measuring signaling via receptors for the B-cell antigen, IL2, IL4, IL6, and GM-CSF. Serum markers of tumor burden, including CCL3, CCL4, and other markers of inflammation (β2M and CRP), were also being measured.
# IL2, IL4, IL6 signaling = experiment: Phase 1 study: whole blood PD, IL2, IL4, IL6 (JAK/STAT) signaling; format: in vivo, human
# Method: as §1, §2
# GM-CSF signaling = experiment: Phase 1 study: whole blood PD, GM-CSF (JAK2) signaling; format: in vivo, human
# Method: as §1, §2
# [6] = system: serum inflammation markers (β2M, CRP, CCL4); experiment: Phase 1 study: serum markers of inflammation; format: in vivo, human
# Method: Cytokine Analysis: Serum protein was analyzed by Myriad RBM (Austin, TX) using the Human Inflammation Map.
# as §2
# primary CLL cells [7] = experiment: Primary CLL cell viability assay (propidium iodide, 72 hours); format: cell-based, human
# Method: (§3) Isolated CLL cells were cultured in RPMI-1640 with 15% fetal bovine serum (Gibco, Grand Island, NY, USA), penicillin (100 IU), and streptomycin (100 μg/mL), at a density of 1×10^7 cells/mL in the presence or absence of […] CpG, 100 ng/mL CD40L, 10 ng/mL IL-4. Anti-IgM stimulation was conducted with plate-bound anti-IgM (10 μg/mL). CLL cells were stimulated with 10 ng/mL IL-6 (R&D Systems, Minneapolis, MN), to detect the phosphorylation of JAK1/JAK2 (Cell Signaling Technology, Danvers, MA) and STAT3 (Cell Signaling Technology, Danvers, MA, USA).
# Ten thousand events in a live cell gate were counted by a FACS LSR2 (BD Biosciences) and the data was normalized to the matched vehicle control for each specimen (100%). IC50 was then generated using the GraphPad Prism 6 program (San Diego, CA, USA).
# primary CLL cells [8] = experiment: Primary CLL apoptosis (propidium iodide/Annexin V, PARP cleavage); format: cell-based, human
# Method: as §3
# [9] = system: anti-IgM induced signalling pathways; experiment: Primary CLL cells: B cell receptor induced signalling (immunoblotting, flow cytometry); format: cell-based; conditions: primary human CLL cells
# Method: as §3
# [10] = system: IL-4 induced STAT6 phosphorylation; experiment: Primary CLL cells: IL-4 induced signalling; format: cell-based, human
# Method: as §3
# [11] = system: ibrutinib-resistant CLL cells (BTK^C481S, BTKT^316A); experiment: BrdU proliferation assay, CLL cells of ibrutinib-relapsed patients; format: cell-based, human; conditions: three ibrutinib-relapsed patients
# [12] = system: BTK^C481S-transfected TMD8 cells; experiment: Cell growth of transfected TMD8 cells (Muse Count & Viability); format: cell-based; conditions: 250 nM, 7 days
# Description: Cell transfection, cell count and viability assay: TMD8 cells were transfected with constructs of WT BTK or BTK^C481S mutants using kit V, Program U-13 on Amaxa Nucleofector, according to the manufacturer's protocols (Amaxa, Cologne, Germany). After transfection, the cells were co-cultured with NKTert cells in a 24-well plate for 24 hrs for recovery.
# Solubility = format: physicochemical; conditions: contemplated to limit dissolution
# [13] = 24 hours, in the presence of ZVAD
smiles,measurement,setting,value
"CCS(=O)(=O)N1CCN(c2ccc(Nc3ncc(C(N)=O)c(NC4CC4)n3)cc2)CC1 [cerdulatinib, 4-(cyclopropylamino)-2-(4-(4-(ethylsulfonyl)piperazin-1-yl)phenylamino)pyrimidine-5-carboxamide]",IC50,TSSK,14 nM
same,IC50,SYK [1],500 nM
same,IC50,PKC,> 4000 nM
same,IC50,SYK [2],120 nM
same,IC50,JAK1/3 [3],200 nM
same,IC50,JAK1/3 [4],580 nM
same,Caverage corresponding to complete arrest of inflammation and auto-antibody generation,[5],0.3 to 0.4 µM
same,average plasma concentration at which inflammation and joint destruction were arrested,[5],0.3 µM
same,inhibition of SYK and JAK at SS Cmin in peripheral blood assays,SYK and JAK signaling; 45 mg BID dose,complete inhibition
same,inhibition at 40 mg,"SYK and JAK signaling; Homo sapiens, Lymphocyte, 672 h, day 28 of cycle 1, plasma about 0.6 to 1 μM (Cmin of 40 mg dose), read-out: saturating inhibition of SYK and JAK in circulating lymphocytes",80 to 90%
same,inhibition of SYK and JAK in peripheral whole blood assays,SYK and JAK signaling; exposures of the 30 mg once daily dose,approximately 50%
same,maximal inhibition of SYK/JAK signaling,SYK and JAK signaling; in vivo,greater than 80%
same,inhibition of SYK and JAK safely achieved,"SYK and JAK signaling; oral dosing in patients, multiple cycles of therapy",> 90%
same,JAK/STAT signaling inhibition,"IL2, IL4, IL6 signaling; Cmin/Cmax",60-80%
same,"% Inhibition IL2, IL4, IL6 signaling","IL2, IL4, IL6 signaling; Patient 1, 65 mg PO QD",60-100%
same,% Inhibition GM-CSF,GM-CSF signaling; Patient 2,0%
same,inhibition of JAK2 or PKC,GM-CSF signaling; patients,no inhibition
same,inhibition of serum markers of inflammation,[6]; QD dosing of 40-100 mg,significant inhibition
same,reduction of serum β2M (and other inflammation markers),[6]; all dose levels tested clinically,Clear evidence for reduction
same,"inhibition of serum inflammation markers (e.g., β2M, CRP, CCL4)","[6]; day 28 of cycle 1, plasma about 0.6 to 1 μM",50-90%
same,"serum proteins that are markers of inflammation (β2M, CRP, TNFR, CCL3/4)",[6]; patients,significantly reduced
same,"sensitivity of CLL cells with high-risk genetic abnormalities (del (11q), trisomy 12, del(17p)) versus del (13q) or none",primary CLL cells [7],more sensitive
same,sensitivity of CLL cells with unmutated IGHV (N=33) versus mutated IGHV (N=27),primary CLL cells [7]; P=0.0395,more sensitive
same,apoptosis in U-CLL compared to M-CLL and in high versus low CD49d or ZAP70 expression,primary CLL cells [8],significantly greater apoptosis
same,apoptosis with or without IL-4/CD40L support,primary CLL cells [8],induced apoptosis in the presence or absence of IL-4/CD40L support
same,cleavage/activation of caspase 3 and 85 kDa PARP sub-fragment,primary CLL cells [8],induce cleavage/activation
same,apoptosis of CLL cells,"primary CLL cells [8]; 24 patients, 24, 48 and 72 hours",induced apoptosis in a concentration and time dependent manner
same,anti-apoptotic protein MCL1,primary CLL cells [8]; [13],decreased
same,levels of pro-apoptotic protein NOXA,primary CLL cells [8]; [13],increased
same,concentration (achievable in patients) at which BCR and IL-4 mediated signalling was overcome,[9],~2.2 µM
same,IL-4 induced STAT6 phosphorylation,[10],abrogated
same,IL-4 increased surface IgM expression,[10]; [13],inhibited
same,BrdU^+ cell populations (proliferation),[11],almost completely blocked
same,cell growth,[12],effectively blocked
same,solubility,Solubility,pH-dependent low solubility
